Data reported in the RepoRT retention time repository.

Experiment: Waters ACQUITY UPLC BEH C18, 50 × 2.1 mm, 1.7 µm, 30 °C, 0.3 mL/min, estimated dead time 0.37 min; A: water + 0.3% formic acid; B: acetonitrile; gradient (min/%B) 0.5/5 3.5/20 5.5/25 7/57 8/90
Settings: stereoisomer not certain

## O=C(CS(=O)C(c1ccccc1)c1ccccc1)NO (stereo unspecified)
  LC retention time: 5.7 min
